Assay results published in patent US10780083B1, “Charged ion channel blockers and methods for use” (Nocion Therapeutics, Inc., priority 2019, dated 2020).

Experiment: PAMPA membrane permeability assay
Type: in vitro ADME
Details: pH 7.4 buffer, incubated for 4 hours, passive diffusion
Protocol: The PAMPA assay (pION, Inc., Woburn Mass.) was used to determine the ability of compounds of the invention to cross an artificial lipid membrane by passive diffusion. Test compounds were dissolved in DMSO (10 mM) and diluted 200-fold in buffer (pION Inc., pH 7.4) to provide 50 uM stock solutions. Buffer (150 μL) was added to a UV blank plate and stock solutions (150 μL) were transferred to a UV reference plate. The blank and reference spectrum were read using a spectrophotometer. Stock solutions (200 μL) were added to the donor plate of the PAMPA sandwich plate and an accept plate painted with GIT lipid (pION Inc, 5 μL) was placed on top. Buffer (200 μL) was added to the acceptor plate and the PAMPA sandwich plate was incubated for 4 hours. Aliquots (150 μL) from the acceptor plate were added to a UV plate and read as acceptor spectrum. Aliquots (150 μL) of the donor solutions were added to a UV analysis plate and read as donor spectrum. The permeability coefficient of test compounds was calculated using PAMPA Explorer™ software (version 3.5.0.4) based on the AUC of the reference plate, the donor plate, and the acceptor plate.

Papp at 4 h, 50 uM, < 1 ×10⁻⁶ cm/s:
Cc1cccc(C)c1NC(=O)C[N+]1(Cc2ccccc2)CCCC1.[Br-] [2A′, 1-benzyl-1-(2-((2,6-dimethylphenyl)amino)-2-oxoethyl) pyrrolidin-1-ium bromide]
CCC(C(=O)Nc1c(C)cccc1C)[N+]1(Cc2ccccc2)CCCCC1.[Br-] (centres unmarked) [3A′, 1-benzyl-1-(1-((2,6-dimethylphenyl)amino)-1-oxobutan-2-yl)piperidin-1-ium bromide]
Cc1cccc(C)c1NC(=O)C[N+]1(Cc2ccccc2)CCCCCC1.[Br-] [4A′, 1-benzyl-1-(2-((2,6-dimethylphenyl)amino)-2-oxoethyl) azepan-1-ium bromide]
CCC(C(=O)Nc1c(C)cccc1C)[N+]1(Cc2ccccc2)CCCCCC1.[Br-] (centres unmarked) [5A′, 1-benzyl-1-(1-((2,6-dimethylphenyl)amino)-1-oxobutan-2-yl) azepan-1-ium bromide]
Cc1cccc(C)c1NC(=O)C[N+]1(Cc2ccccc2)CCCCCCC1.[Br-] [6A′, 1-benzyl-1-(2-((2,6-dimethylphenyl)amino)-2-oxoethyl) azocan-1-ium bromide]
